# Assay results from ChEMBL document CHEMBL4477222, “Discovery of Novel Thiophene-Based, Thumb Pocket 2 Allosteric Inhibitors of the Hepatitis C NS5B Polymerase with Improved Potency and Physicochemical Profiles” (J Med Chem, 2016).
# How the values were obtained:
# [1] = Cytotoxicity against human Huh7ET cells assessed as reduction in cell viability after 4 days; format: cell-based
# [2] = Cytotoxicity against human W11.8 cells assessed as reduction in cell viability after 4 days; format: cell-based
# Nonstructural protein 5A = Nonstructural protein 5A (Hepatitis C virus, UniProt Q5L478); experiment: Inhibition of HCV genotype 2a NS5A; set-up: species or system Hepatitis C virus subtype 2a
# [3] = molecular target: RNA-directed RNA polymerase (Hepacivirus hominis, UniProt O39930, L419M); experiment: Inhibition of HCV genotype 1a NS5B L419M mutant; set-up: species or system Hepatitis C virus subtype 1a
# [4] = molecular target: RNA-directed RNA polymerase (Hepacivirus hominis, UniProt O39930, L419I); experiment: Inhibition of HCV genotype 1a NS5B L419I mutant; set-up: species or system Hepatitis C virus subtype 1a
# [5] = molecular target: RNA-directed RNA polymerase (Hepacivirus hominis, UniProt O39930, M423I); experiment: Inhibition of HCV genotype 1a NS5B M423I mutant; set-up: species or system Hepatitis C virus subtype 1a
# [6] = molecular target: RNA-directed RNA polymerase (Hepacivirus hominis, UniProt O39930, M423T); experiment: Inhibition of HCV genotype 1a NS5B M423T mutant; set-up: species or system Hepatitis C virus subtype 1a
# [7] = molecular target: RNA-directed RNA polymerase (Hepacivirus hominis, UniProt O39930, M423V); experiment: Inhibition of HCV genotype 1a NS5B M423V mutant; set-up: species or system Hepatitis C virus subtype 1a
# Hepatitis C virus = experiment: Antiviral activity against HCV genotype 1 infected in human assessed as log10 reduction in viral load at 500 mg[…] bid for 3 days measured on day 4 post treatment; format: functional, Hepacivirus hominis
# [8] = molecular target: Nonstructural protein 5A (Hepatitis C virus) (UniProt Q5L478); experiment: Ratio of EC50 for HCV genotype 1b NS5A infected in human l389lucubi- neo/NS3-375.1-containing Huh7ET cells in presence of 40% human serum to EC50 for HCV genotype 1b NS5A infected in human l389lucubi- neo/NS3-375.1-containing Huh7ET cells; conditions: Hepatitis C virus subtype 1b
Compound,CC50 at 96 h [1] [µM],CC50 at 96 h [2] [µM],also measured
C[C@@H](C(=O)N(C)C)N(c1cc(C#CC(C)(C)C)sc1C(=O)O)C(=O)[C@H]1CC[C@H](C)CC1,> 20,> 20,–
CCC[C@@H](C(=O)N(C)C)N(c1cc(C#CC(C)(C)C)sc1C(=O)O)C(=O)[C@H]1CC[C@H](C)CC1,> 20,> 20,–
CNC(=O)CN(c1cc(C#CC(C)(C)C)sc1C(=O)O)C(=O)[C@H]1CC[C@H](C)CC1,> 20,> 20,–
COC1CCN(C(=O)CN(c2cc(C#CC(C)(C)C)sc2C(=O)O)C(=O)[C@H]2CC[C@H](C)CC2)CC1,> 20,> 20,–
CN(C)CCN(C)C(=O)CN(c1cc(C#CC(C)(C)C)sc1C(=O)O)C(=O)[C@H]1CC[C@H](C)CC1,> 20,> 20,–
CC(C)(C)C#Cc1cc(N(CC(=O)N2CCC(O)CC2)C(=O)[C@H]2CC[C@H](C)CC2)c(C(=O)O)s1,> 20,> 20,–
CN(C)C(=O)CN(c1cc(C#CC(C)(C)C)sc1C(=O)O)C(=O)[C@H]1CC[C@H](C)CC1,> 20,> 20,–
CC(C)(C)C#Cc1cc(N(CC(=O)N2CC(O)C2)C(=O)[C@H]2CC[C@H](C)CC2)c(C(=O)O)s1,> 20,> 20,–
C[C@H](C(=O)N(C)C)N(c1cc(C#CC(C)(C)C)sc1C(=O)O)C(=O)[C@H]1CC[C@H](C)CC1,> 20,> 20,–
CC(C)NC(=O)CN(c1cc(C#CC(C)(C)C)sc1C(=O)O)C(=O)[C@H]1CC[C@H](C)CC1,> 20,> 20,–
CC[C@@H](C(=O)N(C)C)N(c1cc(C#CC(C)(C)C)sc1C(=O)O)C(=O)[C@H]1CC[C@H](C)CC1,> 20,> 20,–
CN1CCN(C(=O)CN(c2cc(C#CC(C)(C)C)sc2C(=O)O)C(=O)[C@H]2CC[C@H](C)CC2)CC1,> 20,> 20,–
COC[C@@H](C(=O)N(C)C)N(c1cc(C#CC(C)(C)C)sc1C(=O)O)C(=O)[C@H]1CC[C@H](C)CC1,> 20,> 20,–
CC(C)[C@@H](C(=O)N(C)C)N(c1cc(C#CC(C)(C)C)sc1C(=O)O)C(=O)[C@H]1CC[C@H](C)CC1,> 20,> 20,–
CC(C)(C)C#Cc1cc(N(C(=O)[C@H]2CC[C@H](C)CC2)[C@H]2CC[C@H](O)CC2)c(C(=O)O)s1 [LOMIBUVIR],> 20,> 20,EC50 (Nonstructural protein 5A): 8.1 µM; EC50 [3]: 0.32 µM; EC50 [4]: 0.32 µM; EC50 [5]: 0.03 µM; EC50 [6]: 0.31 µM; EC50 [7]: 0.065 µM; FC (Hepatitis C virus): 3.4; Ratio EC50 [8]: 10 to 20
CCN(CC)C(=O)CN(c1cc(C#CC(C)(C)C)sc1C(=O)O)C(=O)[C@H]1CC[C@H](C)CC1,> 20,> 20,–
CC(C)(C)C#Cc1cc(N(CC(=O)N2CCCCC2)C(=O)[C@H]2CC[C@H](C)CC2)c(C(=O)O)s1,> 20,> 20,–
CN(C)C(=O)[C@H](CO)N(c1cc(C#CC(C)(C)C)sc1C(=O)O)C(=O)[C@H]1CC[C@H](C)CC1,> 20,> 20,–
CC(C)(C)C#Cc1cc(N(CC(=O)N2CCCC2)C(=O)[C@H]2CC[C@H](C)CC2)c(C(=O)O)s1,> 20,> 20,–
